Laboratory results published in patent EP3479863B1, “COMPOSITIONS, METHODS AND ARTICLES CONCERNING PHARMACEUTICAL NITRIC OXIDE AND CONTROLLED PATIENT DELIVERY SYSTEMS THEREOF” (Mallinckrodt Pharmaceuticals Ireland Limited, priority 2010, dated 2012).

Tests used:
[1] = two lines for one acid = two pKa values; cited from earlier work
[2] = NO release from powdered acids hit by single 50 nL sodium nitrite droplets, measured with NO analyzer; details: Example 2; for Time to 90% AUC: 7 mg finely ground powder per well, 50 nL droplet of 6M NaNO2, air flow 500 mL/minute; for NO release kinetics: comparison in words, FIG. 12 and FIG. 13
Procedure: Powdered acids of different acidity (TABLE 1) and reducing capacity, or mixtures at equal weight ratios thereof, were tested for their ability to promote NO release from concentrated aqueous solutions of sodium nitrite. Acids were finely ground and about 5-7 mg placed into wells of a reaction plate contained within a reaction chamber equipped with a microvalve capable of dispensing single 50 nL liquid droplets of sodium nitrite into each well. The reaction chamber was continuously flushed with air at defined flow rates and the NO concentration in the air measured with a […]® NO Analyzer 280i. When NO concentrations exceeded the measurement range of the NO analyzer, the air stream was diluted with a nitrogen stream of defined flow rate prior to measurement and the measured NO concentration corrected for the dilution factor. 50 ml of 6M NaNO2 stock solution was prepared and degassed for 15 minutes. 10 mL of the stock solution was filled into a liquid reservoir feeding a microvalve capable of dispensing single 50 nL liquid droplets sequentially into each of six wells of a reaction plate contained within a reaction chamber. The air flow rate through the reaction chamber was set to 500 mL/minute. The air flow was diluted with nitrogen gas to a flow rate of 1586 mL/minute to allow measurement of the entire NO peak with a […]® NO Analyzer 280i. The NO analyzer was calibrated using a 45 ppm NO calibration gas prior to the experiment. […] The microvalve fired a 50 nL droplet into each well. The timecourse of NO production was measured with the NO Analyzer. The following time parameters were analyzed for each NO peak: AUC, time to reaching 90% of the AUC, and maximum peak NO concentration.

[3] = NO release from croconic acid coated MAGNA nylon tape versus particulate croconic acid, single 50 nL droplets; details: single 50 nL droplets of 6M NaNO2
Procedure: 10 grams of croconic acid were milled for 5 minutes using a bench top micromill and sifted through a 32 µm sieve. 100 mg of milled acid were suspended into 1 mL of absolute MeOH supplemented with 2% v/v cornstarch and 0.05% v/v glycerol. The yellow-orange suspension was spread evenly as a single coat using an acid resistant brush onto a 5 mm by 18 inch MAGNA® hydrophobic nylon tape of 1 .2 µm pore size. The tape was air-dried for 30 min by suspending it horizontally at both ends. The croconic acid formed a dark yellow slightly powdery coating on top of the nylon membrane; the average surface density of croconic acid deposited on the tape was 2.66 mg/cm^2.
NO release in response to single 50 nL droplets of 6M NaNO2 is shown in FIG 14 and TABLE 3, compared to the NO release from croconic acid powder. The croconic acid coated tape produced 85.3% of the NO compared to the bulk croconic acid powder, based upon the AUC.
Particulate croconic acid of particle size < 20µm produced by dry-milling for 45 min was formulated as 500 mg/ml suspension in USP ethanol by 10 min of sonication with additives of 0.05% v/v glycerol and 2% v/v starch and coated onto MAGNA® hydrophobic nylon tape in two sequential air-dried coats, yielding an average croconic acid surface density of 4.42 mg/cm^2.
NO release in response to single 50 nL droplets of 6M NaNO2 is shown in FIG. 15 and TABLE 4, compared to the NO release from particulate croconic acid. The croconic acid coated tape yielded 93.9% of the NO compared to the bulk croconic acid powder.
In another example, the procedure of the preceding paragraph was repeated by suspending 350 mg of milled croconic acid in 1 mL of isopropanol and preparing two sequential air-dried coats on the MAGNA® hydrophobic nylon strip yielding a croconic acid deposited as a dark yellow coating on the nylon membrane. NO release in response to single 50 nL droplets of 6M NaNO2 is shown in FIG. 16 and TABLE 5, compared to the NO release from particulate croconic acid. The croconic acid coated tape yielded 84.7% of the NO compared to the bulk croconic acid powder.

[4] = cited from earlier work

## O=C(O)C(O)c1c(F)c(F)cc(F)c1F (centres unmarked) [2,3,5,6-Tetrafluoromandelic acid]
[1]
  pKa: <<3.4

## O=C(O)C(O)c1ccccc1F (centres unmarked) [2-Fluoro-mandelic acid]
[1]
  pKa: <3.4

## O=C1O[C@H]([C@@H](O)CO)C(O)=C1O [Ascorbic Acid, reference compound]
[2]
  Time to 90% AUC: 13.98 s
  NO release kinetics: slow, protracted and irregular
[1]
  pKa: 11.6

## O=C(O)C(O)c1ccccc1 (centres unmarked) [Mandelic acid]
[1]
  pKa: 3.37

## O=C(O)C(Cl)(Cl)Cl [trichlomacetic acid]
[1]
  pKa: 0.77

## Croconic Acid
[2]
  Time to 90% AUC: 1.1 s
  NO release kinetics: superior NO release kinetics over ascorbic acid while releasing similar quantities of NO
[3]; Example 4A, suspension in MeOH, single coat, 1.2 µm pore size tape
  Time to 90% AUC: 0.79 s
[3]; Example 4B, particle size < 20µm, suspension in USP ethanol, two coats
  Time to 90% AUC: 0.85 s
[3]; Example 4C, suspension in isopropanol, two coats
  Time to 90% AUC: 0.77 s

## nonylphenol ethoxylate [NP-9]
[4]; 0.1 % v/v aqueous solution at 25°C
  surface tension: 30 Dynes/cm
[4]; at 25°C
  viscosity: 243 cp
